# Values joined by “and” are separate entries in the source; they are usually repeats but may differ in a detail not shown here. Equal values may be shown once. “Also recorded” adds a separate entry of the source. Read-outs that look alike come from different tables or passages of the source.
# Experiments:
# [1] = given intravenously; plasma; cited from earlier work
# [2] = Exposure of the prepared salt to air at room temperature (hygroscopicity, storage stability); assay type: physicochemical; details: for Hygroscopicity: exposed at room temperature to air
# Excerpt: The L-arginine butyrate prepared using ethanol as the sole solvent was a white to off-white powder.
# The L-lysine butyrate prepared using ethanol as the sole solvent was a light, pale yellow to yellow powder. […] Table 1: Attempted preparation of salts of amino acids and amino acid derivatives of butyric acid.
# [3] = Nootropic and related properties after oral administration (Example 3); assay type: in vivo, human
# Description: In another experiment, L-lysine butyrate in a dose range of 500 mg to 5,000 mg was administered as an aqueous solution to six individuals aged between 22 and 55 years, comprising two women and four men. […] The observed effects were dose-dependent, with larger doses of L-lysine butyrate providing greater effects and longer duration, lasting up to four hours.
# In another experiment, L-lysine butyrate in a dose of 2 g, and on a separate occasion 5 g, was administered in encapsulated form, to 2 individuals. A further individual was administered L-lysine butyrate in a dose of 2 g in encapsuled form.
# [4] = Visual-analog scales of affect, randomized three-arm crossover trial (Example 5); assay type: in vivo, human; design: Mood AUC / Alertness AUC / Well-being AUC / Calm and Relaxed AUC / Stressed and Anxious AUC: unit not given here
# Description: Experimental Design: This was a randomized, three-arm, crossover trial in which participants visited the laboratory on four occasions (one screening visit and three testing visits). […] Written informed consent was obtained from all subjects prior to enrollment. The study was retrospectively registered on clinicaltrials.gov (#NCT06700785). This study was conducted at The Center for Applied Health Sciences, a contract research organization located in Northeast Ohio. […] VAS assessed subjective ratings of state of well-being, calm and relaxed, stressed and anxious, mood, motivation to perform tasks, level of alertness, and ability to concentrate and were anchored with "Worst possible", "Lowest possible", "Strongly Disagree", or "Best Possible", "Highest Possible", "Strongly Agree". […] Statistical Analyses: Normality was assessed using Q-Q plot and Shapiro-Wilks test. Severe non-normal measures were normalized using log (In) transformation. Serum butyrate concentrations, subjective ratings of affect, and vitals over time between treatments were analyzed using a mixed effects factorial ANOVA . Tukey post hocs were applied if significant main effects/interactions were observed. […] Effect sizes are reported as Cohen's d (with 0.2 considered a small effect, 0.5 considered a medium effect, and 0.8 considered a large effect). All analyses were conducted in GraphPad Prism v.10.4.0.
# [5] = Serum butyrate pharmacokinetics, randomized three-arm crossover trial (Example 5); details: for Serum Butyrate: 10 healthy men, Mean ± SD; for Tmax comparison between treatments: Wilcoxon rank test; for AUC0-210 comparison between treatments / Cmax comparison between treatments: paired samples t-test
# [6] = male, human, in vivo
# [7] = seven (7) days at room temperature
# [8] = 500 mg to 5,000 mg as aqueous solution, six individuals
# [9] = 0 min (prior to ingestion), 100-mm VAS, Mean±SD
# [10] = motivation to perform tasks, 0 min (prior to ingestion), 100-mm VAS, Mean±SD
# [11] = 0-210 min, 786 mg of butyric acid oral, Mean±SD
# [12] = 45 min post ingestion, 786 mg of butyric acid oral, 100-mm VAS, Mean±SD
# [13] = 90 min post ingestion, 786 mg of butyric acid oral, 100-mm VAS, Mean±SD
# [14] = 150 min post ingestion, 786 mg of butyric acid oral, 100-mm VAS, Mean±SD
# [15] = 210 min post ingestion, 786 mg of butyric acid oral, 100-mm VAS, Mean±SD
compound,measurement,setting,value
"CCCC(=O)O [Butyric Acid, butanoic acid]",half-life,[1],about six
"CCCC(=O)O [L-Lysine Butyrate, L-lysine butyrate]",Appearance after exposure to air,[2]; 24 hours at room temperature,"remained a fine, free-flowing yellow powder"
same,Hygroscopicity,[2],not hygroscopic
same,Appearance after exposure to air,[2]; [7],"remained a fine, free-flowing powder with no color change"
same,Appearance after exposure to air,[2]; thirty (30) days at room temperature,"remained a fine, free-flowing powder"
same,Dose dependence of observed effects,"[3]; 500 mg to 5,000 mg as aqueous solution",dose-dependent
same,Effects reported by participants,[3]; [8],"more relaxed, less tired, more sociable, and able to concentrate on tasks more effectively"
same,Time to reported effects after administration,[3]; [8],thirty
same,Duration of effects,"[3]; 500 mg to 5,000 mg as aqueous solution, larger doses",up to four
same,Analgesic effect,"[3]; 2 g oral, encapsulated form, two of the individuals","analgesic effect, eliminating minor-to-moderate pain and discomfort"
same,Mental effects,"[3]; single oral administration of 2 g, encapsulated form","pleasant mental effects, including an improvement in focus, alertness, concentration, reduction in anxiety, and a general feeling of well-being"
same,Mental effects,"[3]; single oral administration of 5 g, encapsulated form","undesirable mental effects, interfering with focus and alertness, with effects similar to intoxication"
same,Alertness,[4]; [9],6.9 ± 1.5^€
same,Calm and Relaxed,[4]; [9],7.5 ± 0.8^# cm
same,Concentration,[4]; [9],7.1 ± 1.3 cm
same,Mood,[4]; [9],7.7 ± 0.9 cm
same,Stressed and Anxious,[4]; [9],2.0 ± 1.4 cm
same,Well-being,[4]; [9],7.3 ± 0.9 cm
same,Alertness,"[4]; in vivo, po",7.2 ± 1.3 and 7.4 ± 1.2 and 7.5 ± 1.2 and 7.5 ± 1.1
same,Alertness AUC,"[4]; in vivo, po",1544 ± 249
same,Calm and Relaxed,"[4]; in vivo, po",7.7 ± 0.9^# cm and 7.6 ± 1.2 cm and 7.6 ± 1.1^# cm and 8.0 ± 0.9 cm
same,Calm and Relaxed AUC,"[4]; in vivo, po",1612 ± 207
same,Concentration,"[4]; in vivo, po",7.1 ± 1.4 cm and 7.5 ± 1.3^β cm and 7.4 ± 1.1 cm and 7.3 ± 1.6 cm
same,Concentration AUC,"[4]; in vivo, po",1532 ± 241
same,Mood,"[4]; in vivo, po",7.9 ± 0.7 cm and 7.6 ± 1.1 cm and 8.0 ± 0.7 cm and 8.0 ± 0.8 cm
same,Mood AUC,"[4]; in vivo, po",1651 ± 171
same,Perform Tasks,"[4]; in vivo, po",7.1 ± 1.3 cm and 7.4 ± 1.1 cm and 7.6 ± 1.3 cm
same,Perform Tasks AUC,"[4]; in vivo, po",1547 ± 262
same,Stressed and Anxious,"[4]; in vivo, po",2.1 ± 1.6 cm and 2.3 ± 1.7 cm and 1.8 ± 1.3 cm and 2.0 ± 1.3 cm
same,Stressed and Anxious AUC,"[4]; in vivo, po",431 ± 288
same,Well-being,"[4]; in vivo, po",7.6 ± 0.9^# cm and 7.6 ± 1.1 cm and 7.7 ± 1.0^# cm and 8.0 ± 0.9 cm
same,Well-being AUC,"[4]; in vivo, po",1610 ± 195
same,Perform Tasks,[4]; [10],6.9 ± 1.7 cm
same,Serum Butyrate,"[5]; 0 min (baseline, prior to ingestion)",0.32 ± 0.43 µg/mL
same,Serum Butyrate,"[5]; 20 min post ingestion, oral, 3 capsules delivering 786 mg of butyric acid",4.53 ± 7.56 µg/mL
same,Serum Butyrate,"[5]; 45 min post ingestion, oral, 3 capsules delivering 786 mg of butyric acid",0.77 ± 1.49 µg/mL
same,Serum Butyrate,"[5]; 90 min post ingestion, oral, 3 capsules delivering 786 mg of butyric acid",0.39 ± 0.62 µg/mL
same,Serum Butyrate,"[5]; 150 min post ingestion, oral, 3 capsules delivering 786 mg of butyric acid",0.43 ± 0.64 µg/mL
same,Serum Butyrate,"[5]; 210 min post ingestion, oral, 3 capsules delivering 786 mg of butyric acid",0.37 ± 0.55 µg/mL
same,Tmax comparison between treatments,[5]; listed as LysB,did not differ from NaB; also recorded: significantly less than TB
same,AUC0-210 comparison between treatments,[5]; listed as LysB,did not differ from NaB; also recorded: significantly greater than TB
same,Cmax comparison between treatments,[5]; listed as LysB,did not differ from NaB; also recorded: significantly greater than TB
"CCCC(=O)[O-].[Na+] [Sodium Butyrate, Sodium butyrate]",Alertness,[4]; [9],6.4 ± 1.2
same,Calm and Relaxed,[4]; [9],7.6 ± 0.9 cm
same,Concentration,[4]; [9],6.4 ± 1.2 cm
same,Mood,[4]; [9],7.1 ± 1.2 cm
same,Stressed and Anxious,[4]; [9],2.4 ± 1.4 cm
same,Well-being,[4]; [9],7.0 ± 1.2 cm
same,Alertness,"[4]; in vivo, po",6.5 ± 1.6 and 6.8 ± 1.3 and 6.7 ± 1.6 and 7.1 ± 1.8
same,Alertness AUC,"[4]; in vivo, po",1411 ± 293
same,Calm and Relaxed,"[4]; in vivo, po",7.3 ± 1.2 cm and 7.6 ± 1.0 cm and 7.9 ± 1.1^¥ cm and 7.9 ± 1.2 cm
same,Calm and Relaxed AUC,"[4]; in vivo, po",1608 ± 216
same,Concentration,"[4]; in vivo, po",6.4 ± 1.7 cm and 6.6 ± 1.5 cm and 6.5 ± 1.9 cm and 6.9 ± 2.1 cm
same,Concentration AUC,"[4]; in vivo, po",1371 ± 343
same,Mood,"[4]; in vivo, po",7.1 ± 1.1 cm and 7.4 ± 1.2 cm and 7.7 ± 1.0 cm and 7.8 ± 1.2 cm
same,Mood AUC,"[4]; in vivo, po",1558 ± 215
same,Perform Tasks,"[4]; in vivo, po",6.8 ± 1.6 cm and 7.1 ± 1.3 cm and 6.9 ± 1.7 cm and 7.1 ± 1.5 cm
same,Perform Tasks AUC,"[4]; in vivo, po",1452 ± 297
same,Stressed and Anxious,"[4]; in vivo, po",2.3 ± 1.5 cm and 2.3 ± 1.6 cm and 2.1 ± 1.8 cm and 2.0 ± 1.8 cm
same,Stressed and Anxious AUC,"[4]; in vivo, po",466 ± 339
same,Well-being,"[4]; in vivo, po",7.2 ± 1.2 cm and 7.3 ± 1.2 cm and 7.5 ± 1.1 cm and 7.6 ± 1.3 cm
same,Well-being AUC,"[4]; in vivo, po",1543 ± 242
same,Perform Tasks,[4]; [10],6.5 ± 1.4^£ # cm
same,Tmax comparison between treatments,[5],significantly less than TB
same,AUC0-210 comparison between treatments,[5],significantly greater than TB
same,Cmax comparison between treatments,[5],significantly greater than TB
"CCCC(=O)OCC(COC(=O)CCC)OC(=O)CCC [TB, propane-1,2,3-triyl tributanoate]",Ability to concentrate (VAS),[4]; [9],6.9 ± 1.7 cm
same,Alertness,[4]; [9],6.7 ± 1.7
same,Calm and Relaxed,[4]; [9],7.5 ± 1.2 cm
same,Mood,[4]; [9],7.1 ± 1.5^# cm
same,Stressed and Anxious,[4]; [9],2.7 ± 2.0 cm
same,Well-being,[4]; [9],7.4 ± 1.2 cm
same,Alertness AUC,[4]; [11],1481 ± 293
same,Calm and Relaxed AUC,[4]; [11],1571 ± 245
same,Concentration AUC,[4]; [11],1504 ± 315
same,Mood AUC,[4]; [11],1600 ± 214
same,Well-being AUC,[4]; [11],1588 ± 234
same,Stressed and Anxious AUC,"[4]; 0-210 min, 786 mg of butyric acid oral, Mean±SD, raw untransformed data",518 ± 408
same,Ability to concentrate (VAS),[4]; [12],7.1 ± 1.6 cm
same,Alertness,[4]; [12],7.0 ± 1.5
same,Calm and Relaxed,[4]; [12],7.2 ± 1.4 cm
same,Mood,[4]; [12],7.5 ± 1.1^# cm
same,Stressed and Anxious,[4]; [12],2.7 ± 2.2 cm
same,Well-being,[4]; [12],7.6 ± 1.1 cm
same,Ability to concentrate (VAS),[4]; [13],6.9 ± 1.6 cm
same,Alertness,[4]; [13],6.9 ± 1.4
same,Calm and Relaxed,[4]; [13],7.5 ± 1.3 cm
same,Mood,[4]; [13],7.6 ± 1.0^# cm
same,Stressed and Anxious,[4]; [13],2.4 ± 1.9 cm
same,Well-being,[4]; [13],7.6 ± 1.2 cm
same,Alertness,[4]; [14],7.1 ± 1.6^#
same,Calm and Relaxed,[4]; [14],7.5 ± 1.2 cm
same,Concentration,[4]; [14],7.4 ± 1.4^α cm
same,Mood,[4]; [14],7.7 ± 1.0 cm
same,Stressed and Anxious,[4]; [14],2.4 ± 2.0 cm
same,Well-being,[4]; [14],7.5 ± 1.1 cm
same,Ability to concentrate (VAS),[4]; [15],7.5 ± 1.6 cm
same,Alertness,[4]; [15],7.5 ± 1.5
same,Calm and Relaxed,[4]; [15],7.9 ± 1.2 cm
same,Mood,[4]; [15],8.0 ± 1.0 cm
same,Stressed and Anxious,[4]; [15],2.3 ± 2.2 cm
same,Well-being,[4]; [15],7.8 ± 1.2 cm
same,Perform Tasks,[4]; [10],6.9 ± 1.6 cm
same,Perform Tasks AUC,"[4]; motivation to perform tasks, 0-210 min, 786 mg of butyric acid oral, Mean±SD",1505 ± 331
same,Perform Tasks,"[4]; motivation to perform tasks, 45 min post ingestion, 786 mg of butyric acid oral, 100-mm VAS, Mean±SD",7.2 ± 1.3 cm
same,Perform Tasks,"[4]; motivation to perform tasks, 90 min post ingestion, 786 mg of butyric acid oral, 100-mm VAS, Mean±SD",7.1 ± 1.7 cm
same,Perform Tasks,"[4]; motivation to perform tasks, 150 min post ingestion, 786 mg of butyric acid oral, 100-mm VAS, Mean±SD",7.2 ± 1.8 cm
same,Perform Tasks,"[4]; motivation to perform tasks, 210 min post ingestion, 786 mg of butyric acid oral, 100-mm VAS, Mean±SD",7.3 ± 1.9 cm
same,Serum Butyrate,[6]; 0 min,0.41 ± 0.71 µg/mL
same,Serum Butyrate AUC0-210,"[6]; po, 786 mg",108 ± 190
same,Serum Butyrate Cmax,"[6]; po, 786 mg",910 ± 1650 ng/mL
L-arginine butyrate,Appearance after exposure to air,[2]; 24 hours at room temperature,"formed hard, rock-like clumps"
same,Hygroscopicity,[2],quite hygroscopic
same,Appearance after exposure to air,[2]; [7],"significantly hydrated into, large solid masses"
